Experimental data reported in US20260138990A1, “TRICYCLIC FUSED IMIDAZOLE COMPOUNDS AS CD38 MODULATORS AND USES THEREOF” (AEOVIAN PHARMACEUTICALS, INC., priority 2023, published 2026).

What was measured:
mouse CD38 = biological target: T1, mouse CD38 (Mus musculus, UniProt P56528); assay: NAD+ cyclase activity assay with mouse recombinant CD38 protein (ε-NAD fluorescence); format: biochemical; settings: 0.6 nM mouse CD38, substrate ε-NAD, 30 min preincubation, fluorescence 300/410 nm
T1 construct: purchased Bio-Techne GmbH 4947-AC
T1 sequence (P56528 1-304): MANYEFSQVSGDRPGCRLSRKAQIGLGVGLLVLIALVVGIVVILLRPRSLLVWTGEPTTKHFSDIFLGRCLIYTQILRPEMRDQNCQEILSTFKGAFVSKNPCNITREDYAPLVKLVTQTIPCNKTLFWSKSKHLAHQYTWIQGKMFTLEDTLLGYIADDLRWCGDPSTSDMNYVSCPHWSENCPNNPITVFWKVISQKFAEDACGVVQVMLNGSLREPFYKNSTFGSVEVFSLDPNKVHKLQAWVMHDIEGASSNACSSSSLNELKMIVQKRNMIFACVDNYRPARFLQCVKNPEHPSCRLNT
Summary of the method: (§1)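 Recombinant CD38 (0.6 nM mouse or 1.9 nM human) in 40 mM HEPES/NaOH pH 7.5, 250 mM sucrose, 0.01% Tween was preincubated with compound for 30 min at room temperature, then […] ε-NAD was added. Fluorescence (ex 300/em 410 nm) was read continuously. Slopes over the linear phase were normalised to enzyme and no-enzyme controls and fitted from 12-point, threefold dose-response curves.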

human CD38 = biological target: T2, human CD38 (Homo sapiens, UniProt P28907); assay: NAD+ cyclase activity assay with human recombinant CD38 protein (ε-NAD fluorescence); format: biochemical; settings: 1.9 nM human CD38, substrate ε-NAD, 30 min preincubation, fluorescence 300/410 nm
T2 construct: purchased Bio-Techne GmbH AVI2404
T2 sequence (P28907 1-300): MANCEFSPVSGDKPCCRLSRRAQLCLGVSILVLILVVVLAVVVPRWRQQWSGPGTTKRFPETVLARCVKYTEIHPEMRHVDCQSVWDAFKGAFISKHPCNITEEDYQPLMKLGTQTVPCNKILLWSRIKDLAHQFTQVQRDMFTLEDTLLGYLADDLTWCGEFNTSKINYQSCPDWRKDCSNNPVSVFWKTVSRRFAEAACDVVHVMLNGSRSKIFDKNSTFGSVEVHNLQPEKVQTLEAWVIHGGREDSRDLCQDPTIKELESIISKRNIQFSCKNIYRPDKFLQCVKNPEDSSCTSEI
Summary of the method: as §1

| IC50 (mouse CD38) [nM] | IC50 (human CD38) [nM] | Compound |
| --- | --- | --- |
| 1 to 10 | 100 to 1000 | CC(=O)N[C@H]1CC[C@H](NC(=O)c2ccc3c(c2)-c2cncn2CCO3)CC1 [Compound 60A, N-((1r,4r)-4-Acetamidocyclohexyl)-5,6-dihydrobenzo[f]imidazo[1,5-d][1,4]oxazepine-10-carboxamide] |
| < 1 | < 30 | O=C(N[C@H]1CC[C@H](C(=O)NCC(F)(F)F)CC1)c1ccc2c(c1)-c1cncn1CCO2 [Compound 61A, N-((1r,4r)-4-((2,2,2-Trifluoroethyl)carbamoyl)cyclohexyl)-5,6-dihydrobenzo[f]imidazo[1,5-d][1,4]oxazepine-10-carboxamide] |
| 1 to 10 | < 30 | O=C(N[C@H]1CC[C@H](NCC(F)(F)F)CC1)c1ccc2c(c1)-c1cncn1CCO2 [Compound 62A, N-((1r,4r)-4-((2,2,2-Trifluoroethyl)amino)cyclohexyl)-5,6-dihydrobenzo[f]imidazo[1,5-d][1,4]oxazepine-10-carboxamide] |
| 1 to 10 | < 30 | O=C(N[C@H]1CC[C@H](NCC(F)F)CC1)c1ccc2c(c1)-c1cncn1CCO2 [Compound 63A, N-((1r,4r)-4-((2,2-Difluoroethyl)amino)cyclohexyl)-5,6-dihydrobenzo[f]imidazo[1,5-d][1,4]oxazepine-10-carboxamide] |
| 10 to 100 | 100 to 1000 | O=C(N[C@H]1CC[C@@H](N2CC(F)(F)C2)CC1)c1ccc2c(c1)-c1cncn1CCO2 [Compound 64A, N-((1s,4s)-4-(3,3-Difluoroazetidin-1-yl)cyclohexyl)-5,6-dihydrobenzo[f]imidazo[1,5-d][1,4]oxazepine-10-carboxamide] |
| < 1 | < 30 | O=C(N[C@H]1CC[C@H](CO)CC1)c1ccc2c(c1)-c1cncn1CCO2 [Compound 65A, N-((1r,4r)-4-(Hydroxymethyl)cyclohexyl)-5,6-dihydrobenzo[f]imidazo[1,5-d][1,4]oxazepine-10-carboxamide] |
| < 1 | < 30 | O=C(NC1CCC(F)(F)C1)c1ccc2c(c1)-c1cncn1CCO2 (stereo not drawn) [Compound 66A, N-(3,3-Difluorocyclopentyl)-5,6-dihydrobenzo[f]imidazo[1,5-d][1,4]oxazepine-10-carboxamide] |
| 1 to 10 | 100 to 1000 | COCCC(=O)N[C@H]1CC[C@H](NC(=O)c2ccc3c(c2)-c2cncn2CCO3)CC1 [Compound 67A, N-((1r,4r)-4-(3-Methoxypropanamido)cyclohexyl)-5,6-dihydrobenzo[f]imidazo[1,5-d][1,4]oxazepine-10-carboxamide] |
| 10 to 100 | 100 to 1000 | CC1COc2ccc(C(=O)N[C@@H]3CCCOC3)cc2-c2cncn21 (stereo partly drawn) [Compound 68A, 5-Methyl-N—((R)-tetrahydro-2H-pyran-3-yl)-5,6-dihydrobenzo[f]imidazo[1,5-d][1,4]oxazepine-10-carboxamide] |
| 10 to 100 | 100 to 1000 | O=C(N[C@H]1CC[C@@H](N2CCC(F)(F)C2)CC1)c1ccc2c(c1)-c1cncn1CCO2 [Compound 69A, N-((1s,4s)-4-(3,3-Difluoropyrrolidin-1-yl)cyclohexyl)-5,6-dihydrobenzo[f]imidazo[1,5-d][1,4]oxazepine-10-carboxamide] |
| 10 to 100 | 100 to 1000 | COCCO[C@H]1CC[C@H](NC(=O)c2ccc3c(n2)-n2cncc2CCO3)CC1 [Compound 70A, N-((1r,4r)-4-(2-Methoxyethoxy)cyclohexyl)-6,7-dihydroimidazo[1,5-d]pyrido[3,2-b][1,4]oxazepine-2-carboxamide] |
| 1 to 10 | < 30 | O=C(N[C@H]1CC[C@H](N2CCC(F)(F)C2)CC1)c1ccc2c(c1)-c1cncn1CCO2 [Compound 71A, N-((1r,4r)-4-(3,3-Difluoropyrrolidin-1-yl)cyclohexyl)-5,6-dihydrobenzo[f]imidazo[1,5-d][1,4]oxazepine-10-carboxamide] |
| < 1 | < 30 | O=C(N[C@H]1CC[C@H](N2CC(F)(F)C2)CC1)c1ccc2c(c1)-c1cncn1CCO2 [Compound 72A, N-((1r,4r)-4-(3,3-Difluoroazetidin-1-yl)cyclohexyl)-5,6-dihydrobenzo[f]imidazo[1,5-d][1,4]oxazepine-10-carboxamide] |
| < 1 | < 30 | O=C(NC1CCC(F)(F)CC1)c1cc(F)c2c(c1)-c1cncn1CCO2 [Compound 73A, N-(4,4-Difluorocyclohexyl)-8-fluoro-5,6-dihydrobenzo[f]imidazo[1,5-d][1,4]oxazepine-10-carboxamide] |
| 1 to 10 | 30 to 100 | C[C@@H](N[C@H]1CC[C@H](NC(=O)c2ccc3c(c2)-c2cncn2CCO3)CC1)C(F)(F)F [Compound 74A, N-((1r,4r)-4-(((R)-1,1,1-Trifluoropropan-2-yl)amino)cyclohexyl)-5,6-dihydrobenzo[f]imidazo[1,5-d][1,4]oxazepine-10-carboxamide] |
| 1 to 10 | < 30 | O=C(N[C@H]1CC[C@@H](OCCC(F)F)CC1)c1ccc2c(c1)-c1cncn1CCO2 [Compound 77A, N-((1s,4s)-4-(3,3-Difluoropropoxy)cyclohexyl)-5,6-dihydrobenzo[f]imidazo[1,5-d][1,4]oxazepine-10-carboxamide] |
| > 100 | 100 to 1000 | O=C(N[C@H]1CC[C@H](OCCC(F)F)CC1)c1ccc2c(c1)-c1cncn1CCO2 [Compound 78A, N-((1r,4r)-4-(3,3-Difluoropropoxy)cyclohexyl)-5,6-dihydrobenzo[f]imidazo[1,5-d][1,4]oxazepine-10-carboxamide] |
| 10 to 100 | 100 to 1000 | O=C(N[C@H]1CC[C@@H](OCCCF)CC1)c1ccc2c(c1)-c1cncn1CCO2 [Compound 79A, N-((1s,4s)-4-(3-Fluoropropoxy)cyclohexyl)-5,6-dihydrobenzo[f]imidazo[1,5-d][1,4]oxazepine-10-carboxamide] |
| 1 to 10 | < 30 | O=C(N[C@H]1CC[C@H](OCCCF)CC1)c1ccc2c(c1)-c1cncn1CCO2 [Compound 80A, N-((1r,4r)-4-(3-Fluoropropoxy)cyclohexyl)-5,6-dihydrobenzo[f]imidazo[1,5-d][1,4]oxazepine-10-carboxamide] |
| 1 to 10 | < 30 | COCCOc1ncc(NC(=O)c2ccc3c(c2)-c2cncn2CCO3)cn1 [Compound 81A, N-(2-(2-Methoxyethoxy)pyrimidin-5-yl)-5,6-dihydrobenzo[f]imidazo[1,5-d][1,4]oxazepine-10-carboxamide] |
| 1 to 10 | < 30 | O=C(N[C@H]1CC[C@H](NC2CCC2(F)F)CC1)c1ccc2c(c1)-c1cncn1CCO2 (stereo partly drawn) [Compound 82A, N-((1r,4r)-4-((2,2-Difluorocyclobutyl)amino)cyclohexyl)-5,6-dihydrobenzo[f]imidazo[1,5-d][1,4]oxazepine-10-carboxamide] |
| 10 to 100 | 100 to 1000 | CC(C)(F)CN[C@H]1CC[C@H](NC(=O)c2ccc3c(c2)-c2cncn2CCO3)CC1 [Compound 83A, N-((1r,4r)-4-((2-Fluoro-2-methylpropyl)amino)cyclohexyl)-5,6-dihydrobenzo[f]imidazo[1,5-d][1,4]oxazepine-10-carboxamide] |
| 1 to 10 | < 30 | O=C(NC1CC(F)(F)C1)c1ccc2c(c1)-c1cncn1CCO2 [Compound 84A, N-(3,3-Difluorocyclobutyl)-5,6-dihydrobenzo[f]imidazo[1,5-d][1,4]oxazepine-10-carboxamide] |
| 1 to 10 | < 30 | CS(=O)(=O)CCCO[C@H]1CC[C@H](NC(=O)c2ccc3c(c2)-c2cncn2CCO3)CC1 [Compound 85A, N-((1r,4r)-4-(3-(Methylsulfonyl)propoxy)cyclohexyl)-5,6-dihydrobenzo[f]imidazo[1,5-d][1,4]oxazepine-10-carboxamide] |
| > 100 | 100 to 1000 | CS(=O)(=O)CCCO[C@H]1CC[C@@H](NC(=O)c2ccc3c(c2)-c2cncn2CCO3)CC1 [Compound 86A, N-((1s,4s)-4-(3-(Methylsulfonyl)propoxy)cyclohexyl)-5,6-dihydrobenzo[f]imidazo[1,5-d][1,4]oxazepine-10-carboxamide] |
| < 1 | < 30 | C[C@H](N[C@H]1CC[C@H](NC(=O)c2ccc3c(c2)-c2cncn2CCO3)CC1)C(F)(F)F [Compound 87A, N-((1r,4r)-4-(((S)-1,1,1-Trifluoropropan-2-yl)amino)cyclohexyl)-5,6-dihydrobenzo[f]imidazo[1,5-d][1,4]oxazepine-10-carboxamide] |
| < 1 | < 30 | CC(C)(N[C@H]1CC[C@H](NC(=O)c2ccc3c(c2)-c2cncn2CCO3)CC1)C(F)(F)F [Compound 88A, N-((1r,4r)-4-((1,1,1-Trifluoro-2-methylpropan-2-yl)amino)cyclohexyl)-5,6-dihydrobenzo[f]imidazo[1,5-d][1,4]oxazepine-10-carboxamide] |
